Test results as given in PMC6599048, “Polyhistidine facilitates direct membrane translocation of cell-penetrating peptides into cells” (Scientific Reports, 2019).
Primed or numbered codes have the meaning given here. Ends that are not written are not given here. FITC′ = fluorescein isothiocyanate label

How the values were obtained:
[1] = tested on: A549 cells; experiment: Time course of cellular internalization of FITC-CPPs, flow cytometry; format: cell-based, human; details: 80 μM, 37 °C
Procedure: (§1) A549 cells were washed with phosphate buffered saline (PBS) and changed to serum-free RPMI 1640 medium for protein transduction experiments. The presence of 10% serum in the medium as the solvent caused a decrease in the uptake of CPPs or their complexes/conjugates. For cellular internalization, cells were seeded at a density of about 1 × 10^5 per 35-mm petri dish and then treated with serum-free medium (as a control), 80 μM of FITC isomer I (Sigma-Aldrich, St. Louis, MO, USA), FITC-nonCPP, FITC-L6, FITC-HL6, or FITC-HR9 at 37 °C for either 1 h or various time durations. The fluorescent tracker Hoechst 33342 was used to stain the nuclei of cells in blue, according to the manufacturer’s instructions (Thermo Fisher).
Cells were seeded at a density of about 2 × 10^5 per well in a 24-well plate. Following the protein transduction, cells were washed with PBS and harvested by adding 250 μl/well of 2.9 mM ethylenediaminetetraacetic acid (EDTA, pH 6.14)[22]. […] Digital measurements were analyzed using Cell Lab Quanta SC MPL software version 1.0 (Beckman Coulter).

[2] = tested on: A549 cells; experiment: MTT cytotoxicity assay, A549; details: 6 μM HL6, 0.3 μM QDs or complexes at ratio 20, 37 °C 30 min, then 24 h in complete medium, twelve independent experiments
[3] = tested on: HeLa cells; experiment: MTT cytotoxicity assay, HeLa; details: 6 μM HL6, 0.3 μM QDs or complexes at ratio 20, 37 °C 30 min, then 24 h in complete medium, twelve independent experiments
Procedure: One hundred % DMSO and serum-free medium were used to treat cells for 30 min as positive and negative controls, respectively. HeLa cells were pretreated with 4 °C for 30 min or heparinases I, II, and III for 6 h. Cells were then treated with HL6/QD complexes (prepared at a ratio of 20 at 37 °C for 1 h) in the absence or presence of various endocytic inhibitors at 37 °C for 30 min. After treatment, cells were washed with PBS and then incubated in complete culture medium at 37 °C for 24 h. Eighty μl of serum-free medium and 20 μl of 3-(4,5-dimethylthiazol-2-yl)-2,5-diphenyltetrazolium bromide (MTT, Sigma-Aldrich; 5 mg/ml in PBS) solution were added to each well. After incubation at 37 °C for 30 min, […] formazan crystals converted only by metabolically living cells were dissolved in 300 μl of DMSO. The 24-well plates were then read using a SpectraMax M2 microplate reader with SoftMax Pro 6.3 microplate analysis software (Molecular Devices, Sunnyvale, CA, USA) at 540 nm wavelength.

[4] = tested on: human A549 cells; experiment: Cellular internalization of FITC-CPPs, fluorescent microscopy; format: cell-based; details: 80 μM, serum-free RPMI 1640, 37 °C, 1 h, Hoechst 33342 counterstain
Procedure: as §1
Bright-field and fluorescent images were captured using an AE31 inverted Epi-fluorescence microscope (Motic, Hong Kong, China) equipped with an IS1000 eyepiece (Tucsen, Fujian, China)[17]. Excitation filter modules of green and blue fluorescent protein (GFP, BFP) channels were set at 480/30 and 350/50 nm, respectively. Emission filter modules of GFP and BFP channels were set at 535/40 and 460/50 nm, respectively.

For “CHHHHHRRRRRRRRRHHHHHC [FITC-HR9, reference compound]”, the “time by which green fluorescence was present” value ([1]; serum-free medium) was at most 5 min and the “fraction of cells showing uptake, comparison between FITC-CPPs” value ([1]; all time points) was “higher with FITC-HR9-treated cells than FITC-HL6 and FITC-L6 at all time points”.
CHHHHHRRWQWRHHHHHC [HL6] was tested, and the “cytotoxicity (cell viability, MTT)” value [2] was “No cytotoxicity was detected” and the “cytotoxicity (cell viability, MTT)” value [3] was “No cytotoxicity was detected”.
For “FITC-HL6: N-terminal fluorescein isothiocyanate (FITC) labeled HL6 ({FITC′}-CHHHHHRRWQWRHHHHHC; cysteine pairing not given here)”, the “time by which green fluorescence was present” value ([1]; serum-free medium) was at most 5 min, the “uptake relative to the FITC-L6 group” value ([1]; 60 min, serum-free medium, seven independent experiments in triplicates) was 46.7 times and the “green fluorescence in cells (cellular internalization)” value [4] was “green fluorescence”.
In the case of “fluorescein isothiocyanate [FITC, reference compound]”, the “green fluorescence in cells (cellular internalization)” value [4] is reported as “did not display green fluorescence”.
